Assay results: ChEMBL document CHEMBL1671750, “Emergence and molecular characterization of extensively drug-resistant Mycobacterium tuberculosis clinical isolates from the Delhi Region in India” (2010)
Values after ≈ are worked out from the molar mass of the structure shown. Active and inactive are the calls of the source. No cut-off for these calls is given here.

Legend:
[1] = system: Mycobacterium tuberculosis; experiment: Antimycobacterial activity against extensively drug-resistant Mycobacterium tuberculosis isolate 2403 obtained from sputum of patient at 2 ug/ml by Bactec MGIT960 modified proportion method; type: functional, organism-based
[2] = system: Mycobacterium tuberculosis; experiment: Antimycobacterial activity against extensively drug-resistant Mycobacterium tuberculosis isolate 2301 obtained from sputum of patient at 2 ug/ml by Bactec MGIT960 modified proportion method; type: functional, organism-based
[3] = system: Mycobacterium tuberculosis; experiment: Antimycobacterial activity against extensively drug-resistant Mycobacterium tuberculosis isolate 2911 obtained from sputum of patient at 2 ug/ml by Bactec MGIT960 modified proportion method; type: functional, organism-based
[4] = system: Mycobacterium tuberculosis; experiment: Antimycobacterial activity against extensively drug-resistant Mycobacterium tuberculosis isolate 625 obtained from sputum of patient at 2 ug/ml by Bactec MGIT960 modified proportion method; type: functional, organism-based
[5] = system: Mycobacterium tuberculosis; experiment: Antimycobacterial activity against extensively drug-resistant Mycobacterium tuberculosis isolate 761 obtained from pus of patient at 2 ug/ml by Bactec MGIT960 modified proportion method; type: functional, organism-based
[6] = system: Mycobacterium tuberculosis; experiment: Antimycobacterial activity against extensively drug-resistant Mycobacterium tuberculosis isolate 2403 obtained from sputum of patient at 100 ug/ml by Bactec MGIT960 modified proportion method; type: functional, organism-based
[7] = system: Mycobacterium tuberculosis; experiment: Antimycobacterial activity against extensively drug-resistant Mycobacterium tuberculosis isolate 2301 obtained from sputum of patient at 100 ug/ml by Bactec MGIT960 modified proportion method; type: functional, organism-based
[8] = system: Mycobacterium tuberculosis; experiment: Antimycobacterial activity against extensively drug-resistant Mycobacterium tuberculosis isolate 2911 obtained from sputum of patient at 100 ug/ml by Bactec MGIT960 modified proportion method; type: functional, organism-based
[9] = system: Mycobacterium tuberculosis; experiment: Antimycobacterial activity against extensively drug-resistant Mycobacterium tuberculosis isolate 2474 obtained from sputum of patient at 100 ug/ml by Bactec MGIT960 modified proportion method; type: functional, organism-based
[10] = system: Mycobacterium tuberculosis; experiment: Antimycobacterial activity against extensively drug-resistant Mycobacterium tuberculosis isolate 625 obtained from sputum of patient at 100 ug/ml by Bactec MGIT960 modified proportion method; type: functional, organism-based
[11] = system: Mycobacterium tuberculosis; experiment: Antimycobacterial activity against extensively drug-resistant Mycobacterium tuberculosis isolate 761 obtained from pus of patient at 100 ug/ml by Bactec MGIT960 modified proportion method; type: functional, organism-based
[12] = system: Mycobacterium tuberculosis; experiment: Antimycobacterial activity against extensively drug-resistant Mycobacterium tuberculosis isolate 2301 obtained from sputum of patient at 1 ug/ml by Bactec MGIT960 modified proportion method; type: functional, organism-based
[13] = system: Mycobacterium tuberculosis; experiment: Antimycobacterial activity against extensively drug-resistant Mycobacterium tuberculosis isolate 2911 obtained from sputum of patient at 1 ug/ml by Bactec MGIT960 modified proportion method; type: functional, organism-based
[14] = system: Mycobacterium tuberculosis; experiment: Antimycobacterial activity against extensively drug-resistant Mycobacterium tuberculosis isolate 2474 obtained from sputum of patient at 1 ug/ml by Bactec MGIT960 modified proportion method; type: functional, organism-based
[15] = system: Mycobacterium tuberculosis; experiment: Antimycobacterial activity against extensively drug-resistant Mycobacterium tuberculosis isolate 625 horboring rpoB S531L/G566R/I569L, katG S315T/R463L, gyrA A90V/S95T, rrs A1401G by CLSI method; type: functional
[16] = system: Mycobacterium tuberculosis; experiment: Antimycobacterial activity against extensively drug-resistant Mycobacterium tuberculosis isolate 761 horboring rpoB S531L/Q510P, katG S315T/R463L, gyrA D94N/S95T, rrs G1484T by CLSI method; type: functional
[17] = system: Mycobacterium tuberculosis; experiment: Antimycobacterial activity against extensively drug-resistant Mycobacterium tuberculosis isolate 2301 horboring rpoB S531L, katG R463L/E217G, gyrA D94N/S95T, rrs A1401G by CLSI method; type: functional
[18] = system: Mycobacterium tuberculosis; experiment: Antimycobacterial activity against extensively drug-resistant Mycobacterium tuberculosis isolate 2474 horboring rpoB H526Y, katG D329A/R463L, gyrA D94G/S95T, rrs A1401G by CLSI method; type: functional
[19] = system: Mycobacterium tuberculosis; experiment: Antimycobacterial activity against extensively drug-resistant Mycobacterium tuberculosis isolate 2911 horboring rpoB D516V, katG S315T/R463L, gyrA D94G/S95T/R128S/Y129C, rrs A1401G by CLSI method; type: functional
[20] = system: Mycobacterium tuberculosis; experiment: Antimycobacterial activity against extensively drug-resistant Mycobacterium tuberculosis H37Rv by CLSI method; type: functional
[21] = system: Mycobacterium tuberculosis; experiment: Antimycobacterial activity against extensively drug-resistant Mycobacterium tuberculosis isolate 761 obtained from pus of patient at 1 ug/ml by Bactec MGIT960 modified proportion method; type: functional, organism-based
[22] = system: Mycobacterium tuberculosis; experiment: Antimycobacterial activity against extensively drug-resistant Mycobacterium tuberculosis isolate 2403 obtained from sputum of patient at 1 ug/ml by Bactec MGIT960 modified proportion method; type: functional, organism-based
[23] = system: Mycobacterium tuberculosis; experiment: Antimycobacterial activity against extensively drug-resistant Mycobacterium tuberculosis isolate 2403 obtained from sputum of patient at 5 ug/ml by Bactec MGIT960 modified proportion method; type: functional, organism-based
[24] = system: Mycobacterium tuberculosis; experiment: Antimycobacterial activity against extensively drug-resistant Mycobacterium tuberculosis isolate 2301 obtained from sputum of patient at 5 ug/ml by Bactec MGIT960 modified proportion method; type: functional, organism-based
[25] = system: Mycobacterium tuberculosis; experiment: Antimycobacterial activity against extensively drug-resistant Mycobacterium tuberculosis isolate 2911 obtained from sputum of patient at 5 ug/ml by Bactec MGIT960 modified proportion method; type: functional, organism-based
[26] = system: Mycobacterium tuberculosis; experiment: Antimycobacterial activity against extensively drug-resistant Mycobacterium tuberculosis isolate 2474 obtained from sputum of patient at 5 ug/ml by Bactec MGIT960 modified proportion method; type: functional, organism-based
[27] = system: Mycobacterium tuberculosis; experiment: Antimycobacterial activity against extensively drug-resistant Mycobacterium tuberculosis isolate 761 obtained from pus of patient at 5 ug/ml by Bactec MGIT960 modified proportion method; type: functional, organism-based

SMILES | Activity [1] | Activity [2] | Activity [3] | Activity [5] | MIC [15] [µg/mL] | MIC [16] [µg/mL] | MIC [17] [µg/mL] | MIC [18] [µg/mL] | MIC [19] [µg/mL] | MIC [20] [µg/mL] | further results
COc1c(N2C[C@@H]3CCCN[C@@H]3C2)c(F)cc2c(=O)c(C(=O)O)cn(C3CC3)c12 | inactive | inactive | inactive | inactive | – | – | – | – | – | – | Activity [4]: inactive
C[C@H]1COc2c(N3CCN(C)CC3)c(F)cc3c(=O)c(C(=O)O)cn1c23 | inactive | inactive | inactive | inactive | – | – | – | – | – | – | –
NC(=O)c1cnccn1 | – | – | – | – | – | – | – | – | – | – | Activity [6]: inactive; Activity [7]: inactive; Activity [8]: Active; Activity [9]: inactive; Activity [10]: inactive; Activity [11]: inactive
NCC[C@H](O)C(=O)N[C@@H]1C[C@H](N)[C@@H](O[C@H]2O[C@H](CN)[C@@H](O)[C@H](O)[C@H]2O)[C@H](O)[C@H]1O[C@H]1O[C@H](CO)[C@@H](O)[C@H](N)[C@H]1O [AMIKACIN] | – | – | – | – | >16 | 16 (≈ 27.3 µM) | >16 | >16 | >16 | 0.5 (≈ 0.854 µM) | Activity [12]: inactive; Activity [13]: inactive; Activity [14]: inactive; Activity [21]: inactive; Activity [22]: inactive
N[C@@H]1CONC1=O [CYCLOSERINE] | – | – | – | – | 16 (≈ 157 µM) | >16 | 16 (≈ 157 µM) | 16 (≈ 157 µM) | 16 (≈ 157 µM) | 8 (≈ 78.4 µM) | –
CC[C@@H](CO)NCCN[C@@H](CC)CO [ETHAMBUTOL] | – | – | – | – | 4 (≈ 19.6 µM) | 8 (≈ 39.2 µM) | 2 (≈ 9.79 µM) | 4 (≈ 19.6 µM) | 4 (≈ 19.6 µM) | 1 (≈ 4.89 µM) | Activity [23]: inactive; Activity [24]: inactive; Activity [25]: inactive; Activity [26]: inactive; Activity [27]: Active
